Laboratory results: ChEMBL document CHEMBL1800037, “Anti-proliferative activity of aguerin B and a new rare nor-guaianolide lactone isolated from the aerial parts of Centaurea deflexa” (Eur J Med Chem, 2011)
Activity calls are given as the source filed them. The calls are words filed in the database; no cut-off is given here.

Experiments:
[1] = test system: MIA PaCa-2; test: Antiproliferative activity against human MIAPaCa2 cells after 48 hrs; format: functional, cell-based; settings: MIA PaCa-2, 48 h
[2] = test system: MIA PaCa-2; test: Antiproliferative activity against human MIAPaCa2 cells after 72 hrs; format: functional, cell-based; settings: MIA PaCa-2, 72 h
[3] = Antiproliferative activity against human COLO320 cells after 48 hrs; format: functional, cell-based; settings: COLO 320, 48 h
[4] = Antiproliferative activity against human COLO320 cells after 72 hrs; format: functional, cell-based; settings: COLO 320, 72 h
[5] = test system: HEK293; test: Antiproliferative activity against human HEK293 cells up to 100 uM; format: cell-based
[6] = test system: MIA PaCa-2; test: Induction of apoptosis in human MIAPaCa2 cells assessed as increase of interneucleosomal DNA fragmentation at 10 uM after 24 hrs; format: functional, cell-based
[7] = test system: COLO 320; test: Induction of apoptosis in human COLO320 cells assessed as increase of interneucleosomal DNA fragmentation at 10 uM after 24 hrs; format: functional, cell-based
[8] = test system: MIA PaCa-2; test: Antiproliferative activity against human MIAPaCa2 cells after 48 to 72 hrs; format: functional, cell-based
[9] = test system: COLO 320; test: Antiproliferative activity against human COLO320 cells after 48 to 72 hrs; format: functional, cell-based
[10] = test system: MIA PaCa-2; test: Antiproliferative activity against human MIAPaCa2 cells; format: functional, cell-based; settings: TDE = time-dependent effect
[11] = test system: COLO 320; test: Antiproliferative activity against human COLO320 cells; format: functional, cell-based; settings: TDE = time-dependent effect
[12] = test system: MIA PaCa-2; test: Induction of apoptosis in human MIAPaCa2 cells assessed as increase of interneucleosomal DNA fragmentation at 5 uM after 24 hrs relative to control; format: functional
[13] = test system: COLO 320; test: Induction of apoptosis in human COLO320 cells assessed as increase of interneucleosomal DNA fragmentation at 5 uM after 24 hrs relative to control; format: functional

Compound | IC50 [1] | IC50 [2] | IC50 [3] | IC50 [4] | Activity [5] | Activity [6] | Activity [7] | Activity [8] | Activity [9] | Activity [10] | Activity [11] | fold change (FC) [12] | fold change (FC) [13]
C=C1C[C@H](O)[C@@H]2[C@H](OC(=O)[C@H]2C)[C@H]2CC(=O)C[C@@H]12 | 25.7 µM | 15.9 µM | 10 µM | 6 µM | Non-toxic | inactive | inactive | Dose-dependent effect | Dose-dependent effect | tde | tde | – | –
O=c1[nH]cc(F)c(=O)[nH]1 [FLUOROURACIL] | 14 µM | 7.4 µM | 10 µM | 8.7 µM | – | – | – | – | – | – | – | – | –
C=C(C)C(=O)O[C@H]1CC(=C)[C@@H]2C[C@H](O)C(=C)[C@@H]2[C@H]2OC(=O)C(=C)[C@@H]21 [AGUERIN B] | 7.5 µM | 3.6 µM | 3.2 µM | 2.6 µM | Non-toxic | – | – | Dose-dependent effect | Dose-dependent effect | tde | tde | >2 | >2
